Test results as given in patent publication US9422264B2, “Carbamate-substituted oxindole derivatives and use thereof for the treatment of vasopressin-dependent diseases” (AbbVie Deutschland GmbH & Co. KG, priority 2007, dated 2016).
Where a name gives a salt, the structure may show the parent alone.

Key:
[1] = target: human vasopressin V1a receptor (Homo sapiens, UniProt P37288); assay: Vasopressin V1a receptor binding assay; conditions: selectivity quotient, human V1a versus human V1b
[2] = target: T1, recombinant human oxytocin receptors (Homo sapiens, UniProt P30559); assay: Oxytocin receptor binding assay; conditions: selectivity quotient, human OT versus human V1b
T1 construct: expressed in transfected cells; host or cells: HEK-293 (transient)
T1 sequence (P30559 1-389): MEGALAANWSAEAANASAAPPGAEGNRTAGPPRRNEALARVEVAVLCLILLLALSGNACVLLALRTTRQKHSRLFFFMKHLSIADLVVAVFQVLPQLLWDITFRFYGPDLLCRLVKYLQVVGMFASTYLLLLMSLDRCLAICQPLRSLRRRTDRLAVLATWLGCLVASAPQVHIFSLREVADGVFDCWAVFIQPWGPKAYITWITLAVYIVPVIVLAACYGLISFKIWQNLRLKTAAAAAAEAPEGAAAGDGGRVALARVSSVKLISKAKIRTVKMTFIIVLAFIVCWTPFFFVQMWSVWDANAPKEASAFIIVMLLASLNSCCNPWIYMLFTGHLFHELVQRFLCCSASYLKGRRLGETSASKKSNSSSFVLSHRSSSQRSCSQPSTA
Method: 4. Oxytocin Receptor Binding Assay
Confluent HEK-293 cells with transiently expressing recombinant human oxytocin receptors were centrifuged at 750×g at room temperature for 5 minutes. The residue was taken up in ice-cold lysis buffer (50 mM Tris-HCl, 10% glycerol, pH 7.4 and Roche complete protease inhibitor) and subjected to an osmotic shock at 4° C. for 20 minutes. The lyzed cells were then centrifuged at 750×g at 4° C. for 20 minutes, the residue was taken up in incubation buffer, and aliquots of 10^7 cells/ml were prepared. The aliquots were frozen at −80° C. until used.
On the day of the experiment, the cells were thawed, diluted with incubation buffer and homogenized using a Multipette Combitip (Eppendorf, Hamburg). […] The nonspecific binding was determined with 10^−6 M oxytocin (Bachem AG, H2510). Triplicate determinations were set up. Bound and free radioligand were separated by filtration under vacuum with Whatman GF/B glass fiber filters with the aid of a Skatron cell harvester 7000. The bound radioactivity was determined by liquid scintillation measurement in a Tricarb Beta counter, model 2000 or 2200CA (Packard).

[3] = Determination of the microsomal half-life / microsomal clearance (human liver microsomes); type: in vitro ADME; conditions: pH 7.4, 0.5 μM test substance
Method: 5. Determination of the Microsomal Half-Life:
The metabolic stability of the compounds of the invention was determined in the following assay.
The test substances were incubated in a concentration of 0.5 μM as follows:
0.5 μM test substance are preincubated together with liver microsomes from different species (from rat, human or other species) (0.25 mg of microsomal protein/ml) in 0.05 M potassium phosphate buffer of pH 7.4 in microtiter plates at 37° C. for 5 min. The reaction is started by adding NADPH (1 mg/mL). After 0, 5, 10, 15, 20 and 30 min, 50 μl aliquots are removed, and the reaction is immediately stopped and cooled with the same volume of acetonitrile. The samples are frozen until analyzed. The remaining concentration of undegraded test substance is determined by MSMS. The half-life (T½) is determined from the gradient of the signal of test substance/unit time plot, it being possible to calculate the half-life of the test substance, assuming first order kinetics, from the decrease in the concentration of the compound with time. The microsomal clearance (mCl) is calculated from mCl=In2/T½/(content of microsomal protein in mg/ml)×1000 […] (modified from references: Di, The Society for Biomoleculur Screening, 2003, 453-462; Obach, DMD, 1999 vol. 27. N 11, 1350-1359).

[4] = target: T2, human vasopressin V1b receptor (Homo sapiens, UniProt P47901); assay: Vasopressin V1b receptor binding assay; conditions: read-out: Ki(h-V1b)*
T2 construct: expressed in transfected cells; host or cells: CHO-K1 (cell line hV1b_3H2_CHO)
T2 sequence (P47901 1-424): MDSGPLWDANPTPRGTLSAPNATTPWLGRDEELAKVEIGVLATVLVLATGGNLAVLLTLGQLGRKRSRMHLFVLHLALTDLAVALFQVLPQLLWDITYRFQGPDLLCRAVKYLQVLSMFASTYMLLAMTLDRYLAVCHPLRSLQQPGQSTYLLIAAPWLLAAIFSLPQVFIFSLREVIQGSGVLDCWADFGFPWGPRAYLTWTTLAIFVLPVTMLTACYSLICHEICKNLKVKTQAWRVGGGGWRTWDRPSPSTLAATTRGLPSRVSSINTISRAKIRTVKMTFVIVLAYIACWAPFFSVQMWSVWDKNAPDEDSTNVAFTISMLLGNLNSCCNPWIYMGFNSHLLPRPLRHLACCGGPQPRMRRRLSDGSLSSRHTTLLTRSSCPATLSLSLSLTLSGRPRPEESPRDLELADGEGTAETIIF
Method: 1. Vasopressin V1b Receptor Binding Assay:
The substance concentration was further diluted 1:5 in the assay mixture (2% DMSO in the mixture).
All determinations were carried out as triplicate determinations.

Chain of human vasopressin V1a receptor (P37288 whole entry): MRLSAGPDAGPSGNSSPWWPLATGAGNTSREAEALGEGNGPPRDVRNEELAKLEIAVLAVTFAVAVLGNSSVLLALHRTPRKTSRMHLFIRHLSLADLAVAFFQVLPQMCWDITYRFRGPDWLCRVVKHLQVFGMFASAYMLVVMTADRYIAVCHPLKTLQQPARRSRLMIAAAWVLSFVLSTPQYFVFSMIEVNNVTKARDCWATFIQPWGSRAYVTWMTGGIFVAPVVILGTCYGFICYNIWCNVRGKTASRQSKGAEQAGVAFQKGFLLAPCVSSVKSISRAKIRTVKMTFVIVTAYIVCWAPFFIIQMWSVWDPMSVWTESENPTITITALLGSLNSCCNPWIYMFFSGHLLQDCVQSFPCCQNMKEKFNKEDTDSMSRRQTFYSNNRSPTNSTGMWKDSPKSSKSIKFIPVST

Structure (SMILES)	Ki(h-V1a)/Ki(h-V1b)* [1]	Ki(h-OT)/Ki(h-V1b)* [2]	microsomal CLint at 0.5 μM [3] [µL/min/mg]	Ki [4] [nM]
CCOc1ncccc1C1(OC(=O)N2CCC(N3CCN(C)CC3)CC2)C(=O)N(S(=O)(=O)c2ccccc2OC)c2ccc(C#N)cc21 (racemic) [Example 32, (±)-5-Cyano-3-(2-ethoxypyridin-3-yl)-1-[(2-methoxyphenyl)sulfonyl]-2-oxo-2,3-dihydro-1H-indol-3-yl 4-(4-methylpiperazin-1-yl)piperidine-1-carboxylate]	++ (>25-75)	+++ (>45)	75 to 200	10 to 50
CCOc1ncccc1C1(OC(=O)N2CCN(C3CCN(C)CC3)CC2)C(=O)N(S(=O)(=O)c2ccccc2)c2ccc(C#N)cc21 (single isomer, unassigned; (-)) [Example 4B, (−)-5-Cyano-3-(2-ethoxypyridin-3-yl)-2-oxo-1-(phenylsulfonyl)-2,3-dihydro-1H-indol-3-yl 4-(1-methylpiperidin-4-yl)piperazine-1-carboxylate]	+++ (>75)	+++ (>45)	< 50	< 10
CCOc1ncccc1C1(OC(=O)N2CCN(C3CCNCC3)CC2)C(=O)N(S(=O)(=O)c2ccc(OC)cc2OC)c2ccc(C#N)cc21 (racemic) [Example 25, (±)-5-Cyano-1-[(2,4-dimethoxyphenyl)sulfonyl]-3-(2-ethoxypyridin-3-yl)-2-oxo-2,3-dihydro-1H-indol-3-yl-4-piperidin-4-ylpiperazine-1-carboxylate as bis(trifluoroacetic acid) salt]	+++ (>75)	+ (15-25)	50 to 75	< 10
CCOc1ncccc1C1(OC(=O)N2CCC(N3CCN(CC)CC3)CC2)C(=O)N(S(=O)(=O)c2ccccc2)c2ccc(C#N)cc21 (racemic) [Example 40, (±)-5-Cyano-3-(2-ethoxypyridin-3-yl)-2-oxo-1-(phenylsulfonyl)-2,3-dihydro-1H-indol-3-yl 4-(4-ethylpiperazin-1-yl)piperidine-1-carboxylate]	++ (>25-75)	+++ (>45)	50 to 75	< 10
CCOc1ncccc1C1(OC(=O)N2CCN(C3CCN(C)CC3)CC2)C(=O)N(S(=O)(=O)c2ccccc2)c2ccc(C#N)cc21 (racemic) [Example 4, (±)-5-Cyano-3-(2-ethoxypyridin-3-yl)-2-oxo-1-(phenylsulfonyl)-2,3-dihydro-1H-indol-3-yl 4-(1-methylpiperidin-4-yl)piperazine-1-carboxylate]	+++ (>75)	+++ (>45)	< 50	< 10

Results, then the molecule that gave them:

Ki(h-V1a)/Ki(h-V1b)* [1]	Ki(h-OT)/Ki(h-V1b)* [2]	microsomal CLint at 0.5 μM [3] [µL/min/mg]	Ki [4] [nM]	Structure (SMILES)
++ (>25-75)	++ (>25-45)	75 to 200	< 10	CCOc1ncccc1C1(OC(=O)N2CCC(N3CCN(C)CC3)CC2)C(=O)N(S(=O)(=O)c2ccc(OC)cc2)c2ccc(C#N)cc21 (racemic) [Example 35, (±)-5-Cyano-3-(2-ethoxypyridin-3-yl)-1-[(4-methoxyphenyl)sulfonyl]-2-oxo-2,3-dihydro-1H-indol-3-yl 4-(4-methylpiperazin-1-yl)piperidine-1-carboxylate]
+++ (>75)	+++ (>45)	75 to 200	< 10	CCOc1ncccc1C1(OC(=O)N2CCC(N3CCN(CC)CC3)CC2)C(=O)N(S(=O)(=O)c2ccc(OC)cc2OC)c2ccc(C#N)cc21 (racemic) [Example 37, (±)-5-Cyano-1-[(2,4-dimethoxyphenyl)sulfonyl]-3-(2-ethoxypyridin-3-yl)-2-oxo-2,3-dihydro-1 H-indol-3-yl-4-(4-ethylpiperazin-1-yl)piperidine-1-carboxylate]
+++ (>75)	++ (>25-45)	75 to 200	< 10	CCOc1ncccc1C1(OC(=O)N2CCN(C3CCN(C)CC3)CC2)C(=O)N(S(=O)(=O)c2ccc(OC)cc2)c2ccc(C#N)cc21 (racemic) [Example 5, (±)-5-Cyano-3-(2-ethoxypyridin-3-yl)-1-[(4-methoxyphenyl)sulfonyl]-2-oxo-2,3-dihydro-1H-indol-3-yl-4-(1-methylpiperidin-4-yl)piperazine-1-carboxylate]
+++ (>75)	+++ (>45)	75 to 200	< 10	CCOc1ncccc1C1(OC(=O)N2CCN(C3CCN(C)CC3)CC2)C(=O)N(S(=O)(=O)c2ccccc2OC)c2ccc(C#N)cc21 (racemic) [Example 2, (±)-5-Cyano-3-(2-ethoxypyridin-3-yl)-1-[(2-methoxyphenyl)sulfonyl]-2-oxo-2,3-dihydro-1H-indol-3-yl-4-(1-methylpiperidin-4-yl)piperazine-1-carboxylate]
+++ (>75)	+++ (>45)	< 50	< 10	CCOc1ncccc1C1(OC(=O)N2CCN(C3CCN(CC)CC3)CC2)C(=O)N(S(=O)(=O)c2ccccc2)c2ccc(C#N)cc21.O=C(O)C(F)(F)F (racemic) [Example 10, (±)-5-Cyano-3-(2-ethoxypyridin-3-yl)-2-oxo-1-(phenylsulfonyl)-2,3-dihydro-1H-indol-3-yl 4-(1-ethylpiperidin-4-yl)piperazine-1-carboxylate, trifluoroacetic acid salt]
+++ (>75)	+++ (>45)	75 to 200	< 10	CCOc1ncccc1C1(OC(=O)N2CCN(C3CCN(C)CC3)CC2)C(=O)N(S(=O)(=O)c2ccccc2OC)c2ccc(C#N)cc21 (single isomer, unassigned; (-)) [Example 2B, (−)-5-Cyano-3-(2-ethoxypyridin-3-yl)-1-[(2-methoxyphenyl)sulfonyl]-2-oxo-2,3-dihydro-1H-indol-3-yl-4-(1-methylpiperidin-4-yl)piperazine-1-carboxylate]
+++ (>75)	+++ (>45)	75 to 200	< 10	CCOc1ncccc1C1(OC(=O)N2CCN(C3CCN(C)CC3)CC2)C(=O)N(S(=O)(=O)c2ccc(OC)cc2OC)c2ccc(C#N)cc21 (racemic) [Example 1, (±)-5-Cyano-1-[(2,4-dimethoxyphenyl)sulfonyl]-3-(2-ethoxypyridin-3-yl)-2-oxo-2,3-dihydro-1H-indol-3-yl-4-(1-methylpiperidin-4-yl)piperazine-1-carboxylate]
